Measurements as given in publication PMC11625190 (Synthetic and Systems Biotechnology, 2024).

Test system: ChAER1
Assay: HPLC quantification of 4-hydroxydihydrocinnamaldehyde formation, crude enzyme
Format: biochemical, Cephalotaxus harringtonia
Conditions: 1 mM NADPH, 50 mM Tris-HCl pH 7.5, 30 °C, 1 h

- Km: 467 µM
SMILES: O=C/C=C/c1ccc(O)cc1 [p-coumaraldehyde]
